Data on 6 molecules can be found in PMC2880850 (Journal of medicinal chemistry, 2010).

SMILES strings stand for the structures. “Also recorded” adds a separate entry of the source.

The subject of series [1] is MDA-MB-231 breast cancer cells. The note with it: read-out: EC50 in killing MDA-MB-231 breast cancer cells; cited from earlier work.
Series [2] addresses GST–Bcl-XL ΔTM protein (Homo sapiens, UniProt Q07817). The conditions noted are these: read-out: IC50 binding to Bcl-XL in FPA assays; cited from earlier work.
The test system of series [3] is B6 transgenic mice overexpressing human Bcl-2 in B-cells. Put plainly: Bcl-2 transgenic mice, spleen weight. The series is classed as in vivo, mouse. The conditions noted are these: single i.p. injection at 42 mg/kg, 24 hours.
Series [4] deals with M2182 tumor xenografts.
The test system of series [5] is Bax/Bak double knockout MEF cells (MEF/DKO). Put plainly: FITC-Annexin V/PI assay, Bax/Bak double knockout MEF. The series is classed as cell-based, mouse. The note with it: for toxicity in MEF/DKO cells: 30 μM, FITC-Annexin V/PI.
The nature of series [6]: Chemical stability at different temperatures. In kind it is physicochemical.
For series [7], the target named is Bcl-XL (Homo sapiens, UniProt Q07817). In words: Isothermal Titration Calorimetry assay. In kind it is binding. The note with it: Kd ratio. Background: Isothermal titration calorimetry measures the heat released or taken up as one component is titrated into another.
Sequence of Bcl-XL (Q07817 whole entry): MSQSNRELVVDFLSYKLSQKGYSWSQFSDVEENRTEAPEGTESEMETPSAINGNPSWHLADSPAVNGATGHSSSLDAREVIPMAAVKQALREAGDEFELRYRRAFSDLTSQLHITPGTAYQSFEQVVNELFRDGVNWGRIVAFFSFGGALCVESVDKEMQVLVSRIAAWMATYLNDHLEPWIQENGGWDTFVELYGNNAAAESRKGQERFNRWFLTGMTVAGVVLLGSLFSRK
Series [8] has as its system BP3 cell line. Put plainly: Apoptosis assay, Annexin V-FITC and propidium iodide, BP3. The series is classed as cell-based, human.

Sequence of GST–Bcl-XL ΔTM protein (Q07817 1-211 limits assumed, stated change not applied): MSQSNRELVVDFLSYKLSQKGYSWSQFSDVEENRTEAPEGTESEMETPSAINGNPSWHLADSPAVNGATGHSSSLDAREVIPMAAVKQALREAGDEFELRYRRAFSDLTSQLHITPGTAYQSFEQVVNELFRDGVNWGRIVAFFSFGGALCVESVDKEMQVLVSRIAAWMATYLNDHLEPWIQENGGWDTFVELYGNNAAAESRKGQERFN

As a reminder, the EC50 is the concentration needed to bring the measured effect to its halfway point. `Cc1cc2c(C(C)C)c(O)c(O)c(C=O)c2c(O)c1-c1c(C)cc2c(C(C)C)c(O)c(O)c(C=O)c2c1O` (single isomer, unassigned) [(+) 1, Gossypol]: the EC50 in series [1] was roughly 10000 nM.
Broadly, the IC50 is the concentration that inhibits the measured activity by half. As for `Cc1cc2c(C(C)C)c(O)c(O)c(C=O)c2c(O)c1-c1c(C)cc2c(C(C)C)c(O)c(O)c(C=O)c2c1O` (single isomer, unassigned) [(−) 1, Gossypol], the IC50 in series [2] is 480 nM. Besides, the half-maximal effective concentration (EC50) in series [1] is roughly 2000 nM.
For the molecule `Cc1cc2c(C(=O)NC[C@H](C)c3ccccc3)c(O)c(O)cc2c(O)c1-c1c(C)cc2c(C(=O)NC[C@H](C)c3ccccc3)c(O)c(O)cc2c1O` (single isomer, unassigned) [Compound 11], the spleen weight reduction entry in series [3] is listed as “more than 30%”. Besides, the “inhibition of tumor growth” value in series [4] (5 mg/kg i.p. every 2 days, nine injections, both flanks) was “near complete inhibition of tumor growth”. In series [4] (mouse, in vivo, ip), the tolerability of treatment result is recorded as “no apparent signs of toxicity”. In series [5], the “cytotoxicity against bax−/−bak−/− cells” value was “less cytotoxicity against bax^−/−bak^−/− cells compared to compound 4; also recorded: little cytotoxicity” and the “toxicity in MEF/DKO cells” value is “slight toxicity”. In series [6], the chemical stability entry was “better chemical stability compared to other compounds (12–14)”. The “times more potent than other isomers 12–14 in ITC assay” value in series [7] is reported as 4–20 times.
`Cc1cc2c(C(=O)NC[C@H](C)c3ccccc3)c(O)c(O)cc2c(O)c1-c1c(C)cc2c(C(=O)NC[C@H](C)c3ccccc3)c(O)c(O)cc2c1O` (single isomer, unassigned) [Compound 12]: the spleen weight reduction entry in series [3] is given as “weak in vivo activity”.
Turning to `CN(C)CC[C@H](CSc1ccccc1)Nc1ccc(S(=O)(=O)NC(=O)c2ccc(N3CCN(Cc4ccccc4-c4ccc(Cl)cc4)CC3)cc2)cc1[N+](=O)[O-]` [ABT-737], the “apoptosis induction / cytotoxic activity against BP3 cell line” value in series [8] is “no cytotoxic activity”.
Regarding `Cc1cc2c(C(=O)NC[C@@H](C)c3ccccc3)c(O)c(O)cc2c(O)c1-c1c(C)cc2c(C(=O)NC[C@@H](C)c3ccccc3)c(O)c(O)cc2c1O` [Compound 14, (R)-1,1′,6,6′,7,7′-hexahydroxy-3,3′-dimethyl-N^5-((S)-2-phenylpropyl)-N^5′-((S)-2-phenylpropyl)-2,2′-binaphthyl-5,5′-dicarboxamide], the “toxicity in MEF/DKO cells” value in series [5] was “almost equally effective in killing both MEF/WT and MEF/DKO”.
